We go through one compound from ChEMBL document CHEMBL5725558, “BTK Inhibitors” (2017).

In the experiment the target is Tyrosine-protein kinase BTK (Homo sapiens, UniProt Q06187). The experiment in a line: Phosphorylation reactions were allowed to proceed for 120 minutes. […] After 60 minutes incubation with detection reagents, reaction plates were read on a PerkinElmer EnVision plate reader using standard TR-FRET protocol. […] IC50 values were determined by 4 parameter robust fit of TR-FRET ratio values vs. (Log10) compound concentrations. In general terms: In TR-FRET formats the signal depends on donor and acceptor labels being close together.
Tyrosine-protein kinase BTK, sequence (Q06187 whole entry): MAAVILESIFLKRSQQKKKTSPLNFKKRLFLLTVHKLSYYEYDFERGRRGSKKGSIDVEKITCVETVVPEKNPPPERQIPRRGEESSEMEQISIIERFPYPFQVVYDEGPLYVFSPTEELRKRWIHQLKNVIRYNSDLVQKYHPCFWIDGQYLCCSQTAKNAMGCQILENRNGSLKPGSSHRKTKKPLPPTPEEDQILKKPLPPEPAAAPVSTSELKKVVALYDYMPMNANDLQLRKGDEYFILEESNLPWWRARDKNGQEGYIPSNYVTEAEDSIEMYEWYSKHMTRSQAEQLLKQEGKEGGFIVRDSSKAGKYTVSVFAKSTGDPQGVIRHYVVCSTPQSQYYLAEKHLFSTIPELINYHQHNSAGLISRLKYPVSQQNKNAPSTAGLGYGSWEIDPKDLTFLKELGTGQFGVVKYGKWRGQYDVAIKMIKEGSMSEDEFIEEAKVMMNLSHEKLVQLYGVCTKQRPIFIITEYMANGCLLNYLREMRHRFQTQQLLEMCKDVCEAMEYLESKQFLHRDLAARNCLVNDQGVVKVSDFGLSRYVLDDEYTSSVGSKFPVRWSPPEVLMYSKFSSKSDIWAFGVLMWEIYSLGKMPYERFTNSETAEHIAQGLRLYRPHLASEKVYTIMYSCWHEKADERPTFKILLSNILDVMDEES

In the case of `CC(=O)N1CCC[C@@H](c2nc(-c3ccc(C(=O)Nc4cc(C)ccn4)cc3)c3c(N)nccn23)C1`, the IC50 (usually the concentration that gives 50% inhibition) was below 10 nM.
